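Compound exposure: 48 hours, 5 concentrations, 96-well plates. GI50 = concentration required for 50% inhibition of growth. TGI denotes the concentration required for complete inhibition of growth.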
What was measured:
Assay in all cases: growth of human tumour cells (NCI), 48 h
NCI-H522 lung = tested on: NCI-H522 lung
K-562 leukemia = tested on: K-562 leukemia
HOP-62 NSCLC = tested on: HOP-62 NSCLC
U251 CNS = tested on: U251 CNS
786-0 renal = tested on: 786-0 renal
OVCAR-5 ovarian = tested on: OVCAR-5 ovarian
OVCAR-4 ovarian = tested on: OVCAR-4 ovarian
OVCAR-3 ovarian = tested on: OVCAR-3 ovarian
IGROV1 ovarian = tested on: IGROV1 ovarian
NCI/ADR-RES ovarian = tested on: NCI/ADR-RES ovarian

SMILES	TGI (NCI-H522 lung)	TGI (K-562 leukemia)	TGI (HOP-62 NSCLC)	TGI (U251 CNS)	TGI (786-0 renal)	TGI (OVCAR-5 ovarian)	TGI (OVCAR-4 ovarian)	TGI (OVCAR-3 ovarian)	TGI (IGROV1 ovarian)	GI50 (NCI/ADR-RES ovarian)	TGI (NCI/ADR-RES ovarian)	GI50 (NCI-H522 lung)	GI50 (K-562 leukemia)	GI50 (HOP-62 NSCLC)	GI50 (U251 CNS)	GI50 (786-0 renal)	GI50 (OVCAR-5 ovarian)	GI50 (OVCAR-4 ovarian)	GI50 (OVCAR-3 ovarian)	GI50 (IGROV1 ovarian)
CCOC(=O)C1C(NC(N)=O)N(Cc2ccccc2)C(=O)N1Cc1ccccc1 (centres undefined)	> 100 µM	> 100 µM	> 100 µM	32 µM	> 100 µM	> 100 µM	> 100 µM	> 100 µM	> 100 µM	–	–	–	–	–	–	–	–	–	–	–
CC[C@]12C=CCN3CC[C@@]4(c5ccc(OC)cc5N(C)[C@H]4[C@@](O)(C(=O)OC)[C@@H]1OC(=O)CCCN1CCN(CCCC(=O)O[C@@H]4[C@]5(CC)C=CCN6CC[C@@]7(c8ccc(OC)cc8N(C)[C@H]7[C@@]4(O)C(=O)OC)[C@@H]65)CC1)[C@@H]32	3.52 µM	0.365 µM	2.81 µM	2.86 µM	2.91 µM	3.47 µM	2.44 µM	2.82 µM	1.99 µM	1.45 µM	3.17 µM	1.78 µM	0.18 µM	1.28 µM	1.35 µM	1.44 µM	1.82 µM	1.11 µM	1.38 µM	0.635 µM
c1cc(OCCCCCOc2cccc(-c3nc4ccccc4[nH]3)c2)cc(-c2nc3ccccc3[nH]2)c1	> 100 µM	–	> 100 µM	> 100 µM	> 100 µM	> 100 µM	> 100 µM	> 100 µM	> 100 µM	1.99 µM	7.91 µM	2.48 µM	–	3.58 µM	3.07 µM	2.68 µM	2.76 µM	2.03 µM	1.53 µM	0.324 µM
N#CC1(CCCCl)CCCCC1	> 100 µM	–	–	> 100 µM	> 100 µM	> 100 µM	–	> 100 µM	> 100 µM	–	–	–	–	–	–	–	–	–	–	–
COc1ccc(-c2c(Nc3ccccn3)nc3c(C4=CCCCC4)c(-c4ccccc4)[nH]n3c2=O)cc1	23.9 µM	–	22.9 µM	17.9 µM	16.3 µM	> 100 µM	> 100 µM	> 100 µM	51.4 µM	2.57 µM	> 100 µM	3.55 µM	–	3.73 µM	1.95 µM	2.63 µM	5.52 µM	2.31 µM	1.94 µM	3.5 µM
Cc1ccccc1NC(=O)CC(=O)NNCC(=O)Nc1nnc(-c2ccccc2)s1	> 100 µM	> 100 µM	> 100 µM	> 100 µM	> 100 µM	> 100 µM	33.5 µM	> 100 µM	> 100 µM	–	–	–	–	–	–	–	–	–	–	–
Cc1ccccc1NC(=O)C1C(=O)N(c2ccccc2C)C(=O)/C1=N\NC(N)=O (centres undefined)	> 100 µM	> 100 µM	> 100 µM	> 100 µM	> 100 µM	> 100 µM	> 100 µM	> 100 µM	> 100 µM	–	–	–	–	–	–	–	–	–	–	–
CC(C)(C)C1CC[C@H]2c3c([nH]c4ccccc34)[C@H]3C(=O)N(c4ccc(F)cc4)C(=O)[C@H]3[C@H]2C1 (some centres undefined)	25.3 µM	42.5 µM	30.8 µM	20.8 µM	23.5 µM	80 µM	23.7 µM	31 µM	35.3 µM	–	–	–	–	–	–	–	–	–	–	–
O=[N+]([O-])c1ccc(/C=C/c2ccc(/C=C/c3ccc([N+](=O)[O-])cc3[N+](=O)[O-])cc2)c([N+](=O)[O-])c1	–	> 100 µM	> 100 µM	> 100 µM	> 100 µM	> 100 µM	> 100 µM	> 100 µM	> 100 µM	–	–	–	–	–	–	–	–	–	–	–
CCCCC(C(=O)C(=O)Nc1ccccc1CC)C(=O)C(C)C (centres undefined)	> 100 µM	> 100 µM	–	> 100 µM	> 100 µM	> 100 µM	> 100 µM	> 100 µM	> 100 µM	–	–	–	–	–	–	–	–	–	–	–
CC1(C)CC2=NO[Se]3=C2C(=NO3)C1	5.46 µM	12.4 µM	10.8 µM	18.7 µM	12.4 µM	20.5 µM	21.7 µM	5.37 µM	6.43 µM	–	–	–	–	–	–	–	–	–	–	–
C/C(=C\c1ccccc1)C(O)C(=O)c1nc2ccc(Cl)cc2[nH]c1=O (centres undefined)	> 100 µM	> 100 µM	> 100 µM	> 100 µM	> 100 µM	> 100 µM	> 100 µM	> 100 µM	> 100 µM	–	–	–	–	–	–	–	–	–	–	–
O=C(O)c1cn(C2CC2)c2cc(N3CCN(C(=O)N(c4ccccc4)c4nc(-c5ccccc5)cs4)CC3)c(F)cc2c1=O	–	–	> 45.4 µM	> 100 µM	> 100 µM	–	> 100 µM	–	> 100 µM	–	–	–	–	0.462 µM	0.381 µM	0.417 µM	–	0.526 µM	–	0.393 µM
COc1ccc(-n2c(=O)c3ccccc3n(Cc3ccc(C(=O)NO)cc3)c2=O)cc1	4.07 µM	> 100 µM	6.19 µM	3.58 µM	7.09 µM	7.56 µM	20 µM	5.95 µM	–	18.2 µM	> 100 µM	1.45 µM	3.11 µM	2.29 µM	1.78 µM	2.53 µM	2.34 µM	2.86 µM	2.07 µM	–
COC(=O)C1CC(=O)O[C@H]1c1ccc(OC)c(OC)c1 (some centres undefined)	–	> 100 µM	> 100 µM	> 100 µM	> 100 µM	> 100 µM	> 100 µM	> 100 µM	> 100 µM	–	–	–	–	–	–	–	–	–	–	–
CN(C)c1ccc(/C=c2/sc3nc(=O)c(-c4ccccc4NC(=O)C(F)(F)F)nn3c2=O)cc1	> 100 µM	> 100 µM	> 100 µM	> 100 µM	> 100 µM	> 100 µM	> 100 µM	> 100 µM	> 100 µM	–	–	–	–	–	–	–	–	–	–	–
CN(C)c1ccc(/C=C2\CCc3ccccc3C2=O)cc1Br	> 100 µM	> 100 µM	> 100 µM	> 100 µM	> 100 µM	> 100 µM	> 100 µM	> 100 µM	–	–	–	–	–	–	–	–	–	–	–	–
O/N=C1/C(=C/c2ccc(OCc3ccccc3)cc2)CCCC1C(NO)c1ccc(OCc2ccccc2)cc1 (centres undefined)	48 µM	> 100 µM	> 100 µM	33.4 µM	> 100 µM	> 100 µM	57.5 µM	88.8 µM	> 100 µM	–	–	–	–	–	–	–	–	–	–	–
